Source: PMC5884652, “New antimicrobial peptide kills drug-resistant pathogens without detectable resistance” (Oncotarget, 2018)
Values after ≈ are worked out from the molar mass of the structure shown. Like-named read-outs stand apart in the source and are kept apart here. Ends that are not written are not given here.

Legend:
[1] = tested on: S. aureus ATCC 29213; assay: microbe, parasite or virus in culture; settings: for Increase of MIC: relative to first passage; for MIC: Staphylococcus aureus
Method: To determine the MICs of CSP-4, a single colony of S. aureus ATCC 29213 was cultured at 37° C in tryptic soy broth, as well as daptomycin and linezolid, which served as commercial antibiotic positive controls. […] For each agent, the MIC was determined daily for 29 days at pH 5.5 and/or for 8 days at pH 7.4 using cells from wells containing half the MIC (1/2 MIC well). […] All MICs were determined in duplicate.

[2] = tested on: P. aeruginosa 3543; assay: microbe, parasite or virus in culture; assay type: cell-based, Pseudomonas aeruginosa; settings: pH (I or II) not given; 10 mM sodium phosphate buffer, 10% LB; 37° C, 24 h; mean of 3 experiments
From the text: (§1) The method for peptide synthesis has been described in detail previously. E. coli ATCC 25922 (LB media), P. aeruginosa ATCC 15692 (NB+0.5% NaCl media), Listeria monocytogenes ATCC 3710 (LB media), Staphylococcus epidermidis ATCC 12228 (LB media), and S. aureus ATCC 29213 (TSB media) were obtained from the American Type Culture Collection (Manassas, VA, USA). Bacillus subtilis KCTC 1998 (LB media), Salmonella typhimurium KCTC 1926 (NB media), and Proteus vulgaris KCTC 2433 (NB media) were obtained from the Korean Collection for Type Cultures (Jeollabuk-do, Korea). E. coli CCARM 1238 was received from the Culture Collection of Antibiotic Resistant Microbes at Seoul Women’s University, Korea. Drug-resistant P. aeruginosa 3543, 3904, 3547, and 4007 and S. aureus 3126, 0027, 5157, 1635, 4761, 5159, 3359, 2122, 1630, 1870, 3511, 5156, and 3518 were resistant strains isolated from patients with otitis media in a Chonnam National University’s hospital.
(§2) The antibacterial activities of AMPs (melittin, clavaspirin, and its analogs) and conventional antibiotic drugs (erythromycin, gentamicin, ampicillin, and piperacidin) were determined using microdilution assays. Bacterial cells were cultured at 37° C in appropriate culture media at pH 5.5 or pH 7.4 until collection during the mid-log phase and suspended in 10 mM sodium phosphate buffer (pH 5.5 or pH 7.4) supplemented with 10% culture medium. Thereafter, 2× serial dilutions of each peptide (0.25–128 μM) or antibiotic (0.25–256 μM) were added to sterile 96-well plates, and aliquots of cell suspension (5 × 10^5 colony forming units (cfu)/mL) were seeded into each well. The samples were then incubated at 37° C for 24 h. At the end of the incubation, the minimum inhibitory concentrations (MICs) of the peptides were determined using a VERSA Max microplate reader (Molecular Devices Co., Sunnyvale, CA, USA) at a wavelength of 600 nm. […] MIC values were calculated as the mean of 3 independent experiments conducted in triplicate.

[3] = tested on: P. aeruginosa 3547; assay: microbe, parasite or virus in culture; assay type: cell-based, Pseudomonas aeruginosa; settings: pH (I or II) not given; 10 mM sodium phosphate buffer, 10% LB; 37° C, 24 h; mean of 3 experiments
From the text: as §1, §2

[4] = tested on: P. aeruginosa 3904; assay: microbe, parasite or virus in culture; assay type: cell-based, Pseudomonas aeruginosa; settings: pH (I or II) not given; 10 mM sodium phosphate buffer, 10% LB; 37° C, 24 h; mean of 3 experiments
From the text: as §1, §2

[5] = tested on: P. aeruginosa 4007; assay: microbe, parasite or virus in culture; assay type: cell-based, Pseudomonas aeruginosa; settings: pH (I or II) not given; 10 mM sodium phosphate buffer, 10% LB; 37° C, 24 h; mean of 3 experiments
From the text: as §1, §2

[6] = tested on: E. coli ATCC 25922; assay type: cell-based, Escherichia coli; settings: 10 mM sodium phosphate buffer, 10% LB, 37° C, 24 h, mean of 3 experiments
From the text: as §1, §2

[7] = tested on: P. aeruginosa ATCC 15692; assay type: cell-based, Pseudomonas aeruginosa; settings: 10 mM sodium phosphate buffer, 10% LB, 37° C, 24 h, mean of 3 experiments
From the text: as §1, with “E. coli ATCC 25922 (LB media), P. aeruginosa ATCC 15692 (NB+0.5% NaCl media), Listeria monocytogenes ATCC 3710 (LB media), Staphylococcus epidermidis ATCC 12228 (LB media), and S. aureus ATCC 29213 (TSB media) were obtained from the American Type Culture Collection (Manassas, VA, USA).” left out
as §2, with “Bacterial cells were cultured at 37° C in appropriate culture media at pH 5.5 or pH 7.4 until collection during the mid-log phase and suspended in 10 mM sodium phosphate buffer (pH 5.5 or pH 7.4) supplemented with 10% culture medium.” left out

[8] = tested on: Bacillus subtilis KCTC 1998; assay type: cell-based; settings: 10 mM sodium phosphate buffer, 10% LB, 37° C, 24 h, mean of 3 experiments
From the text: as §1, §2

[9] = tested on: Listeria monocytogenes ATCC 3710; assay type: cell-based; settings: 10 mM sodium phosphate buffer, 10% LB, 37° C, 24 h, mean of 3 experiments
From the text: as §1, §2

[10] = tested on: Staphylococcus epidermidis ATCC 12228; assay type: cell-based; settings: 10 mM sodium phosphate buffer, 10% LB, 37° C, 24 h, mean of 3 experiments
From the text: as §1, §2

[11] = tested on: S. aureus ATCC 29213; assay type: cell-based, Staphylococcus aureus; settings: 10 mM sodium phosphate buffer, 10% LB, 37° C, 24 h, mean of 3 experiments
From the text: as §1, with “E. coli ATCC 25922 (LB media), P. aeruginosa ATCC 15692 (NB+0.5% NaCl media), Listeria monocytogenes ATCC 3710 (LB media), Staphylococcus epidermidis ATCC 12228 (LB media), and S. aureus ATCC 29213 (TSB media) were obtained from the American Type Culture Collection (Manassas, VA, USA).” left out
as §2

[12] = tested on: Proteus vulgaris KCTC 2433; assay type: cell-based; settings: 10 mM sodium phosphate buffer, 10% LB, 37° C, 24 h, mean of 3 experiments
From the text: as §1, with “Bacillus subtilis KCTC 1998 (LB media), Salmonella typhimurium KCTC 1926 (NB media), and Proteus vulgaris KCTC 2433 (NB media) were obtained from the Korean Collection for Type Cultures (Jeollabuk-do, Korea).” left out
as §2

[13] = tested on: Salmonella typhimurium KCTC 1926; assay type: cell-based; settings: 10 mM sodium phosphate buffer, 10% LB, 37° C, 24 h, mean of 3 experiments
From the text: as §1, with “Bacillus subtilis KCTC 1998 (LB media), Salmonella typhimurium KCTC 1926 (NB media), and Proteus vulgaris KCTC 2433 (NB media) were obtained from the Korean Collection for Type Cultures (Jeollabuk-do, Korea).” left out
as §2

[14] = tested on: human red blood cells (hRBCs); assay: Hemolysis; assay type: cell-based; settings: PBS buffer containing 8% hRBCs, 1 h, 37° C, absorbance 414 nm, triplicate
Method: Fresh human red blood cells (hRBCs) from healthy donors were centrifuged at 800 × g and washed with phosphate-buffered saline (PBS) until the supernatant was clear. Twofold serial dilutions of the peptides in PBS were added to a 96-well plate, after which the hRBCs were added to obtain a final concentration of 8% (vol/vol). The samples were then incubated with mild agitation for 1 h at 37° C. The samples were then centrifuged at 800 × g for 10 min, and the absorbance of the supernatant was measured at 414 nm. All the measurements were performed in triplicate, and the percentages of hemolysis were calculated using equation 1: % hemolysis=[(A414 in peptide solution−A414 in PBS)/(A414 in […]−A414 in PBS)]×100 (1)
Where 100% hemolysis was defined as the absorbance measured from hRBCs exposed to 1% Triton X-100 and zero hemolysis was characterized using hRBCs alone in PBS [40].

[15] = tested on: HaCaT (human keratinocyte) cells; assay: Cytotoxicity, MTT assay; assay type: cell-based; settings: DMEM containing 10% FBS and 1% PS, 24 h, 37° C
Method: To examine the cytotoxic effects of the peptides, HaCaT (human keratinocyte) cells were cultured in Dulbecco’s modified Eagle’s medium (DMEM) supplemented with antibiotics (100 U/ml penicillin and 100 μg/ml streptomycin) and 10% fetal calf serum at 37° C in a humidified chamber under a 5% CO2 atmosphere. Growth inhibition was evaluated using 3-(4, 5-dimethylthizol-2-yl)-2, 5-diphenyltetrazolium bromide (MTT) assays to measure cell viability. After cells were seeded into a 96-well plate at a density of 2 × 10^4/well and incubated for 24 h, twofold serial dilutions of each peptide in DMEM were added to the wells, and the cells were incubated for an additional 24 h at 37° C. Thereafter, 10 μl of MTT (5 mg/ml) was added to each well, and the plate was incubated for 4 h. The supernatants were then removed, and 50 μl of DMSO was added to each well to dissolve any remaining precipitate. Finally, the absorbance at 570 nm was measured using a microtiter reader.

[16] = after 8 passages at pH 7.4, 10 mM sodium phosphate buffer, 10% tryptic soy broth

With `CCCCCCCCCC(=O)N[C@@H](Cc1c[nH]c2ccccc12)C(=O)N[C@H](CC(N)=O)C(=O)N[C@@H](CC(=O)O)C(=O)N[C@@H]1C(=O)NCC(=O)N[C@@H](CCCN)C(=O)N[C@@H](CC(=O)O)C(=O)N[C@H](C)C(=O)N[C@@H](CC(=O)O)C(=O)NCC(=O)N[C@H](CO)C(=O)N[C@@H]([C@H](C)CC(=O)O)C(=O)N[C@@H](CC(=O)c2ccccc2N)C(=O)O[C@@H]1C` [daptomycin] the “Increase of MIC” value [1, 16] was “approximately 1000 ×”, the “Increase of MIC” value ([1]; after 29 passages at pH 5.5) was “over 8000 ×” and the “Increase of MIC following prolonged exposure” value ([1]; following prolonged exposure) was at most 8000 fold. For the same compound, the “MIC at start of resistance induction” value ([1]; pH 5.5) was 0.25 µM, the “Passages over which resistance was induced” value ([1]; pH 5.5) was 24 passages and the “MIC at start of resistance induction” value ([1]; pH 7.4) was 4 µM. The “Passages after which resistance was induced” value ([1]; pH 7.4) was 5 passages.

For `CC(=O)NC[C@H]1CN(c2ccc(N3CCOCC3)c(F)c2)C(=O)O1` [linezolid], the MIC ([1]; ATCC29213, pH 5.5, read-out: MIC at start of resistance induction) was 4 µM (≈ 1.35 µg/mL), the MIC ([1]; ATCC29213, pH 7.4, read-out: MIC at start of resistance induction) was 8 µM (≈ 2.7 µg/mL) and the “Increase of MIC” value [1, 16] was “approximately 200 ×”. For the same compound, the “Passages over which resistance was induced” value ([1]; pH 5.5) was 24 passages and the “Passages after which resistance was induced” value ([1]; pH 7.4) was 5 passages.

`CCN1CCN(C(=O)N[C@@H](C(=O)N[C@@H]2C(=O)N3[C@@H]2SC(C)(C)[C@@H]3C(=O)O)c2ccccc2)C(=O)C1=O` [piperacidin] gave an MIC [2] of over 800 µM, an MIC [3] of 200 µM (≈ 104 µg/mL) and an MIC [4] of over 800 µM. The MIC [5] was over 800 µM.

In the case of “FLRFIGSVIHGIGHLVHHIGVAL-NH2 [Clavaspirin]”, the “MIC, E. coli” value ([6]; pH 5.5 (I)) is reported as 2 µM, the “MIC, E. coli” value ([6]; pH 7.4 (II)) is reported as 64 µM and the “MIC, P. aeruginosa” value ([7]; pH 5.5 (I)) is reported as 32 µM. For the same compound, the “MIC, P. aeruginosa” value ([7]; pH 7.4 (II)) was over 64 µM, the “MIC, B. subtilis” value ([8]; pH 5.5 (I)) was 16 µM and the “MIC, B. subtilis” value ([8]; pH 7.4 (II)) was 64 µM. For the same compound, the “MIC, L. monocytogenes” value ([9]; pH 5.5 (I)) was 16 µM, the “MIC, L. monocytogenes” value ([9]; pH 7.4 (II)) was 64 µM and the “MIC, S. epidermidis” value ([10]; pH 5.5 (I)) was 4 µM. The “MIC, S. epidermidis” value ([10]; pH 7.4 (II)) was 32 µM, the “MIC, S. aureus” value ([11]; pH 5.5 (I)) was 16 µM and the “MIC, S. aureus” value ([11]; pH 7.4 (II)) was 64 µM. For the same compound, the “MIC, P. vulgaris” value ([12]; pH 5.5 (I)) was 8 µM, the “MIC, P. vulgaris” value ([12]; pH 7.4 (II)) was 64 µM and the “MIC, S. typhimurium” value ([13]; pH 5.5 (I)) was 32 µM. For the same compound, the “MIC, S. typhimurium” value ([13]; pH 7.4 (II)) was 64 µM, the “HC10 (hemolytic activity)” value [14] was 37 and the “HC50 (hemolytic activity)” value [14] was 64. The “EC10 (effective concentration in HaCaT cells)” value [15] was 66.
